Earlier results as cited in patent publication US20210260201A1, “EXTRACELLULAR VESICLES FOR THE TREATMENT AND PREVENTION OF INFECTIONS AND OTHER DISEASES” (PHYSIS BIOTECHNOLOGIES, LLC, priority 2020, published 2021).
Read-outs that look alike come from different tables or passages of the source.

Q: With `C=C(C)[C@@H]1CCC(C)=C[C@H]1c1c(O)cc(CCCCC)cc1O` [CBD, cannabidiol] as the compound, how does the bioavailability (intranasal) read?
A: 34-46%

Q: What about the bioavailability (oral (edibles)) of the same compound?
A: 6-20%

Q: What about the bioavailability (sublingual (tinctures)) of the same compound?
A: 13-19%
